Test results taken from patent publication US20220323443A1, “COMBINATION THERAPY FOR CANCER TREATMENT” (TAKEDA PHARMACEUTICAL COMPANY LIMITED, priority 2019, published 2022).
Read-outs that look alike come from different tables or passages of the source.

What was measured:
H460 cancer cells = experiment: In vitro combination study with Compound 1, Cell Titer-Glo (ATP) cell viability, 72 h; format: cell-based;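 note: Ten-by-ten dose matrices of both drugs alongside single-agent dilutions, luminescence read 72 hours after compound addition, percent activity per well versus vehicle (DMSO) plate controls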
SW48 cancer cells = experiment: as above; format: cell-based
Method: (§2) Each combination pair was evaluated in an individual 384-well plate which contained variable doses of both compounds as single agents, as well as two, ten-by-ten matrices (in duplicate) that contained mixtures of the two test compounds. In brief, compounds were added to the cell test plates 16 hours after cell plating and then assessed for viability 72 hours later. Continuous cultures of tumor cells were maintained under standard cell culturing conditions (i.e. in a humidified chamber set at 37° C., containing atmosphere 5% carbon dioxide). […] Seventy-two hours after compound addition, ATP levels were measured to assess cell viability. Plating densities were chosen to ensure optimal linear growth over the 72 hour period.
Compound dilution and compound delivery to the assay plates were done on HighRes Robotic System (HighRes Biosolutions, Woburn, Mass., USA) with Echo™ Liquid Handler (Labcyte, Sunnyvale, Calif., USA). First, 384-well low dead volume (LDV) plates containing DMSO (Appendix B) and 10 mM compound stock solutions were used to create the required intermediate compound dilution plates. Next, these were used for compound transfer into cell assay plates. All wells were back-filled to give a constant percentage of DMSO.
(§3) The final DMSO concentration was held constant in all wells across the plate and was maintained at less than 0.5%. […] Cells treated with vehicle (DMSO) in two rows, or single compound serial dilutions in one plate columns/row served as the untreated control and single compound controls, respectively.
(§4) Compound activity in A549, COLO205, H460, HCT116, SW48, SW620 cancer cell lines was assessed using Cell Titer-Glo® (Promega [Madison, Wis., USA]). After 72 hours incubation, the plates were treated as per package insert protocol for the Promega Luminescence ATP Detection Systems. Briefly, 25 μL of cell lysis/substrate solution (provided in kit form) was added to each well and the plate was incubated at room temperature for 10 minutes. Luminescence was measured using a PHERAstar multi-label counter (BMG Labtech [Ortenberg, Germany]) or LEADseeker (GE Healthcare Life Sciences [Piscataway, N.J., USA]).
(§5) Numerical luminescence values were analyzed to generate EC50 curves and evaluate synergy. Raw Data reader files were uploaded along with automation workfiles that defined the plate and well contents. Percent activities were calculated for each well versus plate controls.
(§6) Each plate representing a single drug combination was analyzed separately. First, the viability measurements were normalized by scaling the data so that the median of the negative controls was 0 and the median of the positive controls was 100.
(§7) For the combination analysis, a response surface model was used to describe the relationship between the normalized viability and the drug concentrations. The data were fit to the model by minimizing the residual sum of squares. Based on the fitted response surface, plots of constant viability, called isobolograms, were produced.
(§8) The Combination Index and Nonlinear Blending were used as measures of drug synergy. To calculate Combination Index the 50% isobologram (which is the dose contour that has 50% viability) was used. […] A standard procedure was created to produce a call in order to characterize the viability effects for each combination (synergy, additivity, subadditivity, or antagonism). If the Combination Index existed then these measures were used to make the call.

HCT116 cancer cells = experiment: as above; format: cell-based;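 note: combination call from 10×10 dose matrices in duplicate, graded by synergy, with percent activity per well relative to DMSO vehicle controls on the same plate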
Method: as §2
(§9) Compound dilution and compound delivery to the assay plates were done on HighRes Robotic System (HighRes Biosolutions, Woburn, Mass., USA) with Echo™ Liquid Handler (Labcyte, Sunnyvale, Calif., USA). […] Next, these were used for compound transfer into cell assay plates. All wells were back-filled to give a constant percentage of DMSO.
as §3, §4, §5, §6, §7, §8

[1] = test system: PHTXS-13O human primary ovarian cancer xenografts; experiment: In vivo combination study, Patient Derived Xenograft; set-up: species or system mouse; details: for Result (combination with Compound 1, tumor growth): PHTXS-13O (170 mm^3) FIG. 4A
Method: To investigate in vivo antitumor activity of Compound 1 in combination with other agents, tests using Cell Derived Xenograft (CDX), Patient Derived Xenograft (PDX) and Syngeneic mouse tumor isograft model were conducted. Cells or Patient Derived Tumors were inoculated by one method of the following two methods (Method A and B) as shown Table 7.
Method A; Cells were maintained in either immune deficient nude mice or immune competent mice by subcutaneous inoculation of tumor cells at various concentrations into respected mice. Method B: Patient Derived Tumor s were maintained in nude mice by subcutaneous inoculation of tumor pieces (approx. 2×2×2 mm) into nude mice. Mice with tumor size of approximately 50 mm^3 (e.g., 40-75 mm^3) for syngeneic mouse studies or 200 mm^3 (e.g., 110-270 mm^3) for xenograft studies were randomly assigned to dose groups on the day (Day 0) before start date of dosing.
Compound 1 (crystalline form I) was suspended in 0.5 w/v % methylcellulose and administered orally to mice. Antibodies which administered in the experiment were described in Table 8.
Tumor size was measured by caliper and tumor volume was estimated using the equation V=(LW^2)/2, where L and W are tumor length and width, respectively and reported in cubic millimeters.
These values were compared across treatment groups to assess whether the differences in the trends over time were statistically significant. To compare pairs of treatment groups, the following mixed-effects linear regression model was fit to the data using the maximum likelihood method:
For synergy analyses, the observed differences in the log tumor values were used to calculate AUC values for each animal. In instances when an animal in a treatment group was removed from the study, the last observed tumor value was carried forward through all subsequent time points. The AUC for the control, or vehicle, group was calculated using the predicted values from the pairwise models described above. We defined a measure of synergy as follows:
where Ak and Bk are the k^th animal in the individual treatment groups and ABk is the k^th animal in combination treatment group. AUCcd is the model-predicted AUC for the control group and was treated as a constant with no variability. The standard error of the synergy score was calculated as the square root of the sum of squared standard errors across groups A, B, and AB. The degrees of freedom were estimated using the Welch-Satterthwaite equation. A hypothesis test was performed to determine if the synergy score differed from 0. P values were calculated by dividing the synergy score by its standard error and tested against a t-distribution (two-tailed) with the above-calculated degrees of freedom.
The effect was classified into four different categories. It was considered synergistic if the synergy score was less than 0 and additive if the synergy score wasn't statistically different from 0. If the synergy score was greater than zero, but the mean AUC for the combination was lower than the lowest mean AUC among the two single agent treatments, then the combination was sub-additive. If the synergy score was greater than zero, and the mean AUC for the combination was greater than the mean AUC for at least one of the single agent treatments, then the combination was antagonistic.

CALU6 (Lung) = experiment: In vitro combination study for selected compounds, additional cell lines; format: cell-based; details: drug combined with Compound 1
Method: (§1) In vitro anti-proliferative effects of selected compounds were tested in additional cell lines, including ovarian cancer (SKOV3) and pancreatic cancer (MIA-PACA-2) cell lines.

H-1650 (Lung) = experiment: as above; format: cell-based; details: drug combined with Compound 1
Method: as §1

SW620 cancer cells = experiment: In vitro combination study with Compound 1, Cell Titer-Glo (ATP) cell viability, 72 h; format: cell-based;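 note: Ten-by-ten dose matrices of both drugs in 384-well plates, luminescent ATP read-out, synergy evaluated against single-agent and DMSO vehicle controls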
Method: as §2, §9, §3, §4, §5, §6, §7, §8

[2] = test system: ovarian cancer (SKOV3) cell line; experiment: In vitro combination study for selected compounds, additional cell lines; format: cell-based; details: drug combined with Compound 1
Method: as §1

COLO205 cancer cells = experiment: In vitro combination study with Compound 1, Cell Titer-Glo (ATP) cell viability, 72 h; format: cell-based, human;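 note: Ten-by-ten dose matrices of both agents in duplicate plus single-agent dilutions, luminescent ATP read-out, percent activity per well relative to DMSO vehicle wells, synergy call from these matrices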
Method: as §2, §9, §3, §4, §5, §6, §7, §8

A549 cancer cells = experiment: as above; format: cell-based;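 note: Ten-by-ten dose matrices of the two agents in duplicate, compounds added 16 h post-plating, activity relative to DMSO vehicle wells, call reflects synergy evaluation from luminescence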
[3] = DNA damaging agent combined with Compound 1, 72 h

Molecule	Call, anti-proliferative effect of combination with Compound 1, H460 (H460 cancer cells; [3])	Call, anti-proliferative effect of combination with Compound 1, SW48 (SW48 cancer cells; [3])	Call, anti-proliferative effect of combination with Compound 1, HCT116 (HCT116 cancer cells; [3])	In vitro combination effect with Compound 1, Lung CALU6 (CALU6 (Lung))	In vitro combination effect with Compound 1, Lung H-1650 (H-1650 (Lung))	Call, anti-proliferative effect of combination with Compound 1, SW620 (SW620 cancer cells; [3])	In vitro combination effect with Compound 1, Ovary SKOV3 [2]	Call, anti-proliferative effect of combination with Compound 1, SW620 (SW620 cancer cells)	Call, anti-proliferative effect of combination with Compound 1, H460 (H460 cancer cells)	Call, anti-proliferative effect of combination with Compound 1, SW48 (SW48 cancer cells)	Call, anti-proliferative effect of combination with Compound 1, COLO205 (COLO205 cancer cells)	Call, anti-proliferative effect of combination with Compound 1, HCT116 (HCT116 cancer cells)	further results
N.N.O=C([O-])C1(C(=O)[O-])CCC1.[Pt+2] [Carboplatin]	Synergy (0 to 0.7)	Additivity (0.7 to 1.3)	Synergy (0 to 0.7)	Additive	Additive								Result (combination with Compound 1, tumor growth) ([1]; Compound 1 40 mg/kg once daily Day 1-14, drug 30 mg/kg intraperitoneally Days 1,5,9,13): Additive; Result (combination with Compound 1, tumor growth) ([1]; Compound 1 40 mg/kg once daily Day 1-14, drug 50 mg/kg intraperitoneally Days 1,5,9,13): Additive; Result (combination with Compound 1, tumor growth) ([1]; Compound 1 60 mg/kg once daily Day 1-14, drug 30 mg/kg intraperitoneally Days 1,5,9,13): Additive; Result (combination with Compound 1, tumor growth) ([1]; Compound 1 60 mg/kg once daily Day 1-14, drug 50 mg/kg intraperitoneally Days 1,5,9,13): Additive; antitumor activity ([1]; combined with Compound 1, PHTXS-13O human primary ovarian cancer xenografts, FIG. 4A): strong antitumor activity compared to either single treatment alone
N.N.[Cl][Pt][Cl] [Cisplatin]	Synergy (0 to 0.7)	Additivity (0.7 to 1.3)	Synergy (0 to 0.7)	Additive	Additive	Synergy (0 to 0.7)	Additive						
O=C1[O][Pt]2([NH][C@@H]3CCCC[C@H]3[NH]2)[O]C1=O [Oxaliplatin]				Additive	Additive		Additive	Synergy (key: Inconclusive: Any; Additivity: 0.7 to 1.3; Synergy: 0 to 0.7; Subadditivity: 1.3 to 2; Antagonism: >2)	Additivity (key: Inconclusive: Any; Additivity: 0.7 to 1.3; Synergy: 0 to 0.7; Subadditivity: 1.3 to 2; Antagonism: >2)	Additivity (key: Inconclusive: Any; Additivity: 0.7 to 1.3; Synergy: 0 to 0.7; Subadditivity: 1.3 to 2; Antagonism: >2)	Synergy (key: Inconclusive: Any; Additivity: 0.7 to 1.3; Synergy: 0 to 0.7; Subadditivity: 1.3 to 2; Antagonism: >2)	Additivity (key: Inconclusive: Any; Additivity: 0.7 to 1.3; Synergy: 0 to 0.7; Subadditivity: 1.3 to 2; Antagonism: >2)	
CC(=O)O[C@H]1C(=O)[C@@]2(C)[C@H]([C@H](OC(=O)c3ccccc3)[C@]3(O)C[C@H](OC(=O)[C@H](O)[C@@H](NC(=O)c4ccccc4)c4ccccc4)C(C)=C1C3(C)C)[C@]1(OC(C)=O)CO[C@@H]1C[C@@H]2O [Paclitaxel]				Additive	Antagonism								
COc1cc([C@@H]2c3cc4c(cc3[C@@H](O[C@@H]3O[C@@H]5CO[C@@H](c6cccs6)O[C@H]5[C@H](O)[C@H]3O)[C@H]3COC(=O)[C@H]23)OCO4)cc(OC)c1O [Teniposide]	Synergy (0 to 0.7)	Synergy (0 to 0.7)	Synergy (0 to 0.7)			Synergy (0 to 0.7)							Call, anti-proliferative effect of combination with Compound 1, COLO205 (COLO205 cancer cells; [3]): Synergy (0 to 0.7); Call, anti-proliferative effect of combination with Compound 1, A549 (A549 cancer cells; [3]): Synergy (0 to 0.7)
bleomycin								Additivity (key: Inconclusive: Any; Additivity: 0.7 to 1.3; Synergy: 0 to 0.7; Subadditivity: 1.3 to 2; Antagonism: >2)	Synergy (key: Inconclusive: Any; Additivity: 0.7 to 1.3; Synergy: 0 to 0.7; Subadditivity: 1.3 to 2; Antagonism: >2)	Additivity (key: Inconclusive: Any; Additivity: 0.7 to 1.3; Synergy: 0 to 0.7; Subadditivity: 1.3 to 2; Antagonism: >2)	Synergy (key: Inconclusive: Any; Additivity: 0.7 to 1.3; Synergy: 0 to 0.7; Subadditivity: 1.3 to 2; Antagonism: >2)	Synergy (key: Inconclusive: Any; Additivity: 0.7 to 1.3; Synergy: 0 to 0.7; Subadditivity: 1.3 to 2; Antagonism: >2)	Call, anti-proliferative effect of combination with Compound 1, A549 (A549 cancer cells): Additivity (key: Inconclusive: Any; Additivity: 0.7 to 1.3; Synergy: 0 to 0.7; Subadditivity: 1.3 to 2; Antagonism: >2)
